From patent publication US20230151025A1, “SUBSTITUTED THIAZOLOPYRIDINES, SALTS THEREOF AND THEIR USE AS HERBICIDALLY ACTIVE SUBSTANCES” (Bayer Aktiengesellschaft, priority 2020, published 2023)

Key:
Assay type in all cases: in vivo
[1] = test system: Amaranthus retroflexus (AMARE); assay: Herbicidal post-emergence action (B), 1280 g/ha; conditions: rated visually after about 3 weeks vs untreated controls
From the text: (§1) ABUTH: Abutilon theophrasti AGSTE: Agrostis tenuis ALOMY: Alopecurus myosuroides AMARE Amaranthus retroflexus DIGSA: Digitaria sanguinalis ECHCG: Echinochloa crus-galli KCHSC: Kochia scoparia LOLRI: Lolium rigidum MATIN: Matricaria inodora POAAN: Poa annua POLCO: Polygonum convolvulus SETVI: Setaria viridis STEME: Stellaria media VERPE: Veronica persica VIOTR: Viola tricolor
(§2) Seeds of mono- and dicotyledonous weed plants were placed in plastic pots in sandy loam soil (doubly sown with in each case one species of mono- or dicotyledonous weed plants per pot), covered with soil and cultivated in a greenhouse under controlled growth conditions. 2 to 3 weeks after sowing, the test plants were treated at the one-leaf stage. The compounds of the invention, formulated in the form of wettable powders (WP) or as emulsion concentrates (EC), were applied onto the green parts of the plants as aqueous suspension or emulsion with addition of 0.5% additive at a water application rate of 600 liters per hectare (converted). After the test plants had been kept in the greenhouse under optimum growth conditions for about 3 weeks, the activity of the preparations was rated visually in comparison to untreated controls. For example, 100% activity=the plants have died, 0% activity=like control plants.
(§3) Tables B1 to B12, below, show the effects of selected compounds of the general formula (I) according to table 1 on various harmful plants and an application rate corresponding to 1280 g/ha obtained by the experimental procedure mentioned above.

[2] = test system: Veronica persica (VERPE); assay: Herbicidal post-emergence action (B), 1280 g/ha
From the text: as §1, §2, §3

[3] = test system: Stellaria media (STEME); assay: Herbicidal post-emergence action (B), 1280 g/ha
From the text: as §1, §2, §3

[4] = test system: Stellaria media (STEME); assay: Herbicidal pre-emergence action (A), 1280 g/ha; conditions: visual grading after ca. 3 weeks vs untreated controls
From the text: as §1
(§4) Seeds of mono- and dicotyledonous weed plants were sown in plastic pots (double sowings with one species of mono- and one species of dicotyledonous weed plants per pot), in sandy loam, and covered with soil. The compounds according to the invention, formulated in the form of wettable powders (WP) or as emulsifiable concentrates (EC), were applied to the surface of the covering soil as aqueous suspension or emulsion, with the addition of 0.5% of an additive, at an application rate of 600 l of water per hectare (converted). Following treatment, the pots were placed in a greenhouse and kept under optimum growth conditions for the test plants. The visual grading of the damage to the test plants was carried out after ca. 3 weeks in comparison to untreated controls (herbicidal effect in percent (%): 100% effect=plants have died off, 0% effect=as control plants).
(§5) Tables A1 to A12, below, show the effects of selected compounds of the general formula (I) according to table 1 on various harmful plants and an application rate corresponding to 1280 g/ha obtained by the experimental procedure mentioned above.

[5] = test system: Kochia scoparia (KCHSC; Bassia scoparia); assay: Herbicidal post-emergence action (B), 1280 g/ha
From the text: as §1, §2, §3

[6] = test system: Kochia scoparia (KCHSC; Bassia scoparia); assay: Herbicidal pre-emergence action (A), 1280 g/ha; conditions: visual grading after ca. 3 weeks vs untreated controls
From the text: as §1, §4, §5

[7] = test system: Veronica persica (VERPE); assay: Herbicidal pre-emergence action (A), 1280 g/ha; conditions: visual grading after ca. 3 weeks vs untreated controls
From the text: as §1, §4, §5

[8] = test system: Amaranthus retroflexus (AMARE); assay: Herbicidal pre-emergence action (A), 1280 g/ha; conditions: visual grading after ca. 3 weeks vs untreated controls
From the text: as §1, §4, §5

[9] = test system: Setaria viridis (SETVI); assay: Herbicidal pre-emergence action (A), 1280 g/ha; conditions: visual grading after ca. 3 weeks vs untreated controls
From the text: as §1, §4, §5

[10] = test system: Digitaria sanguinalis (DIGSA); assay: Herbicidal pre-emergence action (A), 1280 g/ha; conditions: visual grading after ca. 3 weeks vs untreated controls, 100% = plants have died off, 0% = as control plants
From the text: as §1, §4, §5

[11] = test system: Echinochloa crus-galli (ECHCG); assay: Herbicidal pre-emergence action (A), 1280 g/ha; conditions: visual grading after ca. 3 weeks vs untreated controls, 100% = plants have died off, 0% = as control plants
From the text: as §1, §4, §5

[12] = test system: Matricaria inodora (MATIN); assay: Herbicidal pre-emergence action (A), 1280 g/ha; conditions: visual grading after ca. 3 weeks vs untreated controls
From the text: as §1, §4, §5

[13] = test system: Poa annua (POAAN); assay: Herbicidal pre-emergence action (A), 1280 g/ha; conditions: visual grading after ca. 3 weeks vs untreated controls, 100% = plants have died off, 0% = as control plants
From the text: as §1, §4, §5

[14] = test system: Lolium rigidum (LOLRI); assay: Herbicidal pre-emergence action (A), 1280 g/ha; conditions: visual grading after ca. 3 weeks vs untreated controls, 100% = plants have died off, 0% = as control plants
From the text: as §1, §4, §5

[15] = test system: Poa annua (POAAN); assay: Herbicidal post-emergence action (B), 1280 g/ha; conditions: rated visually after about 3 weeks vs untreated controls
From the text: as §1, §2, §3

[16] = test system: Alopecurus myosuroides (ALOMY); assay: Herbicidal pre-emergence action (A), 1280 g/ha; conditions: visual grading after ca. 3 weeks vs untreated controls, 100% = plants have died off, 0% = as control plants
From the text: as §1, §4, §5

Compound	herbicidal activity AMARE [1]	herbicidal effect VERPE [2]	herbicidal effect STEME [4]	herbicidal effect SETVI [9]	POAAN, herbicidal effect in percent (%) [13]	other results
COc1nc2nc(-c3ccccc3)c(C)cc2s1 [Example I-006]	90%	90%				
Cc1nc2nc(-c3ccccc3F)ccc2s1 [Example I-019]			90%			herbicidal effect STEME [3]: 90%
Cc1cc2sc([S+](C)[O-])nc2nc1-c1ccccc1Cl (stereo not drawn) [Example I-024]			100%			herbicidal effect KCHSC [5]: 90%; herbicidal effect KCHSC [6]: 100%; herbicidal effect VERPE [7]: 90%
Cc1cc2sc([S+](C)[O-])nc2nc1-c1cccc(F)c1 (stereo not drawn) [Example I-039]						herbicidal effect STEME [3]: 90%; herbicidal effect KCHSC [5]: 90%
CSc1nc2nc(-c3ccccc3C)c(C)cc2s1 [Example I-043]	100%	90%		90%		herbicidal effect KCHSC [5]: 90%; herbicidal effect AMARE [8]: 90%; DIGSA, herbicidal effect in percent (%) [10]: 90%; herbicidal effect KCHSC [6]: 90%; herbicidal effect VERPE [7]: 100%
CCc1cc2sc([S+](C)[O-])nc2nc1-c1ccccc1 (stereo not drawn) [Example I-050]	90%	90%	90%		100%	herbicidal effect AMARE [8]: 90%; ECHCG, herbicidal effect in percent (%) [11]: 100%; herbicidal effect KCHSC [6]: 90%; herbicidal effect MATIN [12]: 90%; LOLRI, herbicidal effect in percent (%) [14]: 90%
O=C(O)CNc1nc2nc(-c3ccccc3F)c(Br)cc2s1 [Example I-052]	100%					
Cc1cc2sc(Cc3ccccc3F)nc2nc1-c1ccccc1 [Example I-056]	100%		100%		100%	herbicidal activity POAAN [15]: 100%
CCc1cc2sc(S(C)(=O)=O)nc2nc1-c1ccccc1C [Example I-061]			90%			herbicidal effect KCHSC [5]: 90%; herbicidal effect AMARE [8]: 90%; herbicidal effect VERPE [7]: 90%
C=CCNC(=O)CNc1nc2nc(-c3ccccc3F)c(Br)cc2s1 [Example I-067]	90%					
Cc1cc2sc(Cc3ccccc3F)nc2nc1-c1ccccc1F [Example I-073]			90%		100%	
Cc1cc2sc(S(C)(=O)=O)nc2nc1-c1ccccc1 [Example I-080]		90%	100%		100%	
Cc1nc2nc(-c3ccc(F)cc3)c(C)cc2s1 [Example I-090]	100%					herbicidal effect STEME [3]: 90%
CCc1cc2sc(OC)nc2nc1-c1ccccc1OC [Example I-097]		100%		100%		herbicidal effect STEME [3]: 100%
CCOc1nc2nc(-c3ccccc3F)c(Br)cc2s1 [Example I-101]		90%				
Cc1nc2nc(-c3ccccc3Cl)c(C)cc2s1 [Example I-103]			100%	90%	90%	ECHCG, herbicidal effect in percent (%) [11]: 90%; DIGSA, herbicidal effect in percent (%) [10]: 90%
CCc1cc2sc(SC)nc2nc1-c1ccccc1C [Example I-106]			100%	100%		
Cc1nc2nc(-c3ccccc3)c(C)cc2s1 [Example I-115]			100%	100%	100%	ECHCG, herbicidal effect in percent (%) [11]: 100%; herbicidal effect MATIN [12]: 90%

Compound	herbicidal activity AMARE [1]	herbicidal effect VERPE [2]	herbicidal effect STEME [4]	herbicidal effect SETVI [9]	POAAN, herbicidal effect in percent (%) [13]	other results
Cc1ncccc1-c1nc2ncsc2cc1Br [Example I-129]				100%	100%	herbicidal effect AMARE [8]: 90%; herbicidal effect KCHSC [6]: 90%; ALOMY, herbicidal effect in percent (%) [16]: 90%; LOLRI, herbicidal effect in percent (%) [14]: 90%
Cc1sc(Br)cc1-c1nc2ncsc2cc1Br [Example I-138]		90%	90%	90%	100%	herbicidal activity POAAN [15]: 90%; LOLRI, herbicidal effect in percent (%) [14]: 90%
Cc1nc2nc(-c3cc(Br)sc3C)c(Br)cc2s1 [Example I-142]					100%	herbicidal effect MATIN [12]: 100%
NC(=O)c1nc2nc(-c3ccccc3F)c(Br)cc2s1 [Example I-154, 6-bromo-5-(2-fluorophenyl)thiazolo[4,5-b]pyridine-2-carboxamide]	90%	100%	90%		90%	herbicidal effect KCHSC [5]: 90%; herbicidal effect AMARE [8]: 90%
Fc1ccccc1-c1nc2nc(S)sc2cc1Br [Example I-156, 6-bromo-5-(2-fluorophenyl)thiazolo[4,5-b]pyridine-2-thiol]	100%		90%			
CCc1cc2sc(S)nc2nc1-c1ccccc1 [Example I-162]	90%	100%	90%			herbicidal effect KCHSC [5]: 90%; herbicidal effect VERPE [7]: 90%
COc1ccccc1-c1nc2nc(S)sc2cc1C [Example I-164]		90%		100%	100%	herbicidal effect KCHSC [6]: 90%
Cc1cc2sc(S)nc2nc1C1=CCCCC1 [Example I-174]					100%	herbicidal effect AMARE [8]: 100%
CCc1cc2sc(S)nc2nc1C1=CCCCC1 [Example I-176]		90%	90%	100%		herbicidal effect KCHSC [5]: 90%; DIGSA, herbicidal effect in percent (%) [10]: 90%; herbicidal effect KCHSC [6]: 90%
Cc1cc(-c2nc3ncsc3cc2C)c(C)s1 [Example I-197]		90%		100%	100%	herbicidal effect AMARE [8]: 90%; herbicidal effect KCHSC [6]: 90%
Cc1cc2scnc2nc1-c1c(C)sc(C)c1C [Example I-199]	100%		100%			herbicidal effect MATIN [12]: 90%
Cc1scc(-c2ccc3scnc3n2)c1C [Example I-201]			100%	90%		herbicidal effect STEME [3]: 90%; ECHCG, herbicidal effect in percent (%) [11]: 100%; herbicidal effect KCHSC [6]: 90%
Cc1cnsc1-c1nc2ncsc2cc1Br [Example I-202]			100%			
Cc1cc2scnc2nc1-c1scnc1C [Example I-203]	90%		90%	100%		herbicidal effect STEME [3]: 90%; herbicidal effect AMARE [8]: 90%; ECHCG, herbicidal effect in percent (%) [11]: 100%
Cc1ncsc1-c1nc2ncsc2cc1Br [Example I-204]		90%	90%	100%	90%	herbicidal effect AMARE [8]: 90%; ECHCG, herbicidal effect in percent (%) [11]: 90%
Cc1cnsc1-c1nc2nc(S)sc2cc1Br [Example I-208]	100%	90%				
Cc1ncsc1-c1nc2nc(S)sc2cc1Br [Example I-209]	90%	90%				
